From PubChem BioAssay (NCI)
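Cells were grown in 96-well plates and exposed to each compound for 48 hours at five concentrations; endpoints were interpolated linearly between bracketing concentrations, or set to the highest concentration if not reached. At the GI50, growth is halved. The concentration for full growth arrest is given as TGI.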

Key:
Test in all cases: NCI tumour cell line growth inhibition, 48 h
K-562 leukemia = tested on: K-562 leukemia
COLO 205 colon = tested on: COLO 205 colon
SW-620 colon = tested on: SW-620 colon
SNB-75 CNS = tested on: SNB-75 CNS
IGROV1 ovarian = tested on: IGROV1 ovarian
NCI-H522 lung = tested on: NCI-H522 lung
OVCAR-5 ovarian = tested on: OVCAR-5 ovarian
EKVX NSCLC = tested on: EKVX NSCLC
CAKI-1 renal = tested on: CAKI-1 renal
SNB-19 CNS = tested on: SNB-19 CNS

| Structure (SMILES) | TGI (K-562 leukemia) | TGI (COLO 205 colon) | TGI (SW-620 colon) | TGI (SNB-75 CNS) | TGI (IGROV1 ovarian) | TGI (NCI-H522 lung) | TGI (OVCAR-5 ovarian) | TGI (EKVX NSCLC) | GI50 (K-562 leukemia) | GI50 (COLO 205 colon) | GI50 (CAKI-1 renal) | TGI (CAKI-1 renal) | GI50 (SW-620 colon) | GI50 (SNB-75 CNS) | GI50 (IGROV1 ovarian) | GI50 (SNB-19 CNS) | TGI (SNB-19 CNS) | GI50 (OVCAR-5 ovarian) | GI50 (EKVX NSCLC) | GI50 (NCI-H522 lung) |
| --- | --- | --- | --- | --- | --- | --- | --- | --- | --- | --- | --- | --- | --- | --- | --- | --- | --- | --- | --- | --- |
| COc1cc(/C=C2\[C@H]3c4c(c(OC)c(C)c(OC)c4OC)C[C@@H](C(=O)N2Cc2ccccc2)N3C(=O)OC(C)C)c(OC)c(C)c1OC | > 100 µM | > 100 µM | > 100 µM | > 100 µM | > 100 µM | > 100 µM | > 100 µM | > 100 µM |  |  |  |  |  |  |  |  |  |  |  |  |
| O=C(O)c1ccc2c(c1Nc1ccccc1)C(=O)c1ccccc1C2=O | > 100 µM | > 100 µM | > 100 µM | > 100 µM | > 100 µM |  | > 100 µM | > 100 µM | 68.5 µM | 38900 nM | 16 µM | 47.1 µM | 44100 nM | 46700 nM | 16.2 µM | 49.3 µM | > 100 µM | > 100000 nM | 19.9 µM |  |
| COC(=O)C(C(=O)C(=O)Nc1ccccc1C(C)=O)c1nc2ccc(Cl)cc2[nH]c1=O (stereo not given) | > 100 µM | > 100 µM | > 100 µM | > 100 µM | > 100 µM |  | > 100 µM | > 100 µM |  |  |  | > 100 µM |  |  |  |  | > 100 µM |  |  |  |
| CC#CS(=O)(=O)c1ccccc1 |  | 24.7 µM | 16.5 µM | 13.9 µM | 25.4 µM | 3.92 µM | 18.2 µM | 35.4 µM |  |  |  | 2.36 µM |  |  |  |  | 27.2 µM |  |  |  |
| O=C(O)c1ccc(O)c(N=Nc2cc(S(=O)(=O)O)c3ccccc3c2O)c1 | > 100 µM | > 100 µM | > 100 µM | > 100 µM | > 100 µM |  | > 100 µM | > 100 µM |  |  |  | > 100 µM |  |  |  |  | > 100 µM |  |  |  |
| COc1ccc(/C=C2\CN(Cc3cn(CCCNc4ccnc5cc(Cl)ccc45)nn3)C/C(=C\c3ccc(OC)c(OC)c3)C2=O)cc1OC | 3.64 µM | 2.39 µM | 1.75 µM | 6.09 µM | 2.41 µM | 3.06 µM | 6.42 µM |  | 0.459 µM | 1030 nM |  |  | 455 nM | 1710 nM | 1.05 µM | 1.85 µM | 7.62 µM | 2680 nM |  | 1320 nM |
| CCCc1cc2cc(-n3nc(C)c4c3CC(C)(C)CC4=O)cc(NC3CCC(O)CC3)c2c(=O)[nH]1 (stereo not given) | > 100 µM | 1.22 µM | > 100 µM | 39.6 µM | > 100 µM | > 100 µM | > 100 µM | > 100 µM | 0.0502 µM | 77.5 nM |  |  | 57.8 nM | 1730 nM | 0.134 µM | 0.523 µM | > 100 µM | 626 nM | 1.53 µM | 257 nM |
| Cc1ccc(S(=O)(=O)/N=c2\ssc(Nc3ccccc3)c2Cl)cc1 | > 50 µM |  |  |  | > 50 µM | > 50 µM | > 50 µM | 16.9 µM | 18.4 µM |  | 7.6 µM | 21.1 µM |  |  | 30.9 µM | 12.8 µM | > 50 µM | 21100 nM | 6.03 µM | 19800 nM |
| Nc1ncnc(NC2C=C(CO)C(O)C2O)c1[N+](=O)[O-] (stereo not given) | > 100 µM | > 100 µM | 59 µM | > 100 µM | > 100 µM |  | > 100 µM | > 100 µM |  |  |  | > 100 µM |  |  |  |  | > 100 µM |  |  |  |
